Measured values published in the NIST ThermoML archive (doi:10.1021/je020228x).
± gives the expanded uncertainty stated by the source.

How the values were obtained:
[1] = Crystal
[2] = molar enthalpy of transition or fusion; details: Crystal, DSC
[3] = molar heat capacity at constant pressure; details: 445.51 K; 101.33 kPa; Crystal; Small sample (50 mg) DSC

Cc1nc2ccccc2[nH]1 [2-methylbenzimidazole]
Normal melting temperature ([1]; DTA): 178.28 °C | molar enthalpy of transition or fusion ([2]; 383.93 K): 0.14 kcal/mol | molar enthalpy of transition or fusion ([2]; 451.43 K): 4.9 kcal/mol

CC(C)(C)O [2-methylpropan-2-ol]
Normal melting temperature ([1]; visual observation): 24.84 ± 0.39 °C

c1ccc2[nH]cnc2c1 [benzimidazole]
Normal melting temperature ([1]; DTA): 172.36 °C | molar enthalpy of transition or fusion ([2]; 384.43 K): 0.17 kcal/mol | molar enthalpy of transition or fusion ([2]; 445.51 K): 4.89 kcal/mol | molar heat capacity at constant pressure [3]: 49.09 J/K/mol
